Results from US11857578B2, “Extract and dermatological composition comprising same, for treating sensitive skin” (PIERRE FABRE DERMO-COSMETIQUE, priority 2018, dated 2024).

How the values were obtained:
Format in all cases: cell-based
IL-1β = IL-1β release by human epidermal keratinocytes activated by substance P (ELISA)
Method: (§1) The purpose of this study is to evaluate the modulatory properties of the bacterial extract according to the invention in skin inflammation. To that end, an in vitro experimental approach based on the measurement of production and release of tumor necrosis factor-alpha (TNF-α) and interleukin-1 beta (IL-1β) by human epidermal keratinocytes, activated by substance P, is proposed as an in vitro model of cutaneous neurogenic inflammation. The study is carried out on normal human epidermal keratinocytes; these cells are obtained from newborn foreskin. These cells are cultured in a serum-free medium using conventional laboratory procedures. The determination of markers of cutaneous neurogenic inflammation is carried out on these keratinocytes cultured in a medium in the absence (control condition) or in the presence of the compounds to be tested (bacterial extract according to the invention and reference product), and optionally exposed to substance P. The keratinocytes are treated 3 hours before the stress induced by substance P and during the following 24 hours. Levels of proinflammatory cytokines (TNF-α and IL-1β) are quantified 24 h after the induction of inflammatory stress by the addition of substance P (0.5 μM). […] TNF-α and IL-1β productions are measured in the incubation media and quantified by the enzyme-linked immunosorbent assay (ELISA).

TNF-α = TNF-α release by human epidermal keratinocytes activated by substance P (ELISA)
Method: as §1

HBD2 = assay: RT-qPCR gene expression of innate immunity marker HBD2 in normal human epidermal keratinocytes; conditions: 1.5 mM, 48 h incubation, three donors
Method: (§2) The purpose of this study is to evaluate the effects of the bacterial extract according to the invention on the gene expression of normal human epidermal keratinocytes by an RT-PCR technique on two genes related to innate immunity.
(§3) The study is carried out on normal human epidermal keratinocytes from three donors. These cells are used at their third passage. These cells are cultured in a standard medium supplemented with epidermal growth factor (EGF), pituitary extract (PE) and gentamycin, using conventional laboratory procedures.
(§4) The bacterial extract according to the invention is tested at three concentrations: 0.4, 2 and 10 μg/ml (μg/ml protein).
(§5) At the same time, calcium chloride is tested at 1.5 mM as reference product.
(§6) The keratinocytes are seeded in 24-well plates (50,000 cells per well) and cultured for 24 hours in a culture medium. […]
(§7) The expression of markers is analyzed by the RT-qPCR method on total RNA extracted from the cells under each condition. […] The quantity and quality of RNA are evaluated by capillary electrophoresis. cDNA is synthesized by reverse transcription of total RNA in the presence of oligo(dT) and Transcriptor Reverse Transcriptase. […]
(§8) Fluorescence incorporation into amplified DNA is continuously measured during PCR cycles. […]
(§9) The parameter RQ (relative quantification) is defined as the relative expression/100. […]

S100A7 = assay: RT-qPCR gene expression of innate immunity marker S100A7 in normal human epidermal keratinocytes; conditions: 1.5 mM, 48 h incubation, three donors
Method: as §2, §3, §4, §5, §6, §7, §8, §9

[1] = 1 μM, keratinocytes treated 3 h before and 24 h during substance P (0.5 μM)

| SMILES | IL-1β mean (IL-1β; [1]) | inhibition at 1 µM (IL-1β; Homo sapiens, Keratinocyte, versus Cont SP(+), substance P 0.5 μM, 24 h, read-out: IL-1β % Inh) | TNF-α mean (TNF-α; [1]) | inhibition at 1 µM (TNF-α; Homo sapiens, Keratinocyte, versus Cont SP(+), substance P 0.5 μM, 24 h, read-out: TNF-α % Inh) | HBD2 gene expression, Mean (multiplicative factor, RQ vs control) (HBD2) | HBD2 gene expression, Mean (multiplicative factor, RQ vs control) (HBD2; listed as calcium chloride) | S100A7 gene expression, Mean (multiplicative factor, RQ vs control) (S100A7) | S100A7 gene expression, Mean (multiplicative factor, RQ vs control) (S100A7; listed as calcium chloride) |
| --- | --- | --- | --- | --- | --- | --- | --- | --- |
| COc1ccccc1CN[C@H]1C2CCN(CC2)[C@H]1C(c1ccccc1)c1ccccc1 [NK-1R inh, CP96345] | 132.5 pg/mL | 91% | 4.6 pg/mL | 90% | – | – | – | – |
| [Ca+2].[Cl-].[Cl-] [Calcium chloride, calcium chloride] | – | – | – | – | 5.8 | strong expression | 4.1 | strong expression |
